Test results published in ChEMBL document CHEMBL1134860, “Novel thiophene derivatives for the treatment of benign prostatic hyperplasia” (Bioorg Med Chem Lett, 2002).

How the values were obtained:
[1] = molecular target: Adrenergic receptors; alpha-1 A & B (Homo sapiens) (UniProt P35348+P35368); assay: Relative binding to alpha-1b and alpha-1a receptors (ratio of Ki); assay type: protein assay
[2] = molecular target: T1, Alpha-1A adrenergic receptor (Homo sapiens, UniProt P35348); assay: Displacement of [125I]HEAT from COS cell membranes expressing human Alpha-1A adrenergic receptor
T1 sequence (P35348 whole entry): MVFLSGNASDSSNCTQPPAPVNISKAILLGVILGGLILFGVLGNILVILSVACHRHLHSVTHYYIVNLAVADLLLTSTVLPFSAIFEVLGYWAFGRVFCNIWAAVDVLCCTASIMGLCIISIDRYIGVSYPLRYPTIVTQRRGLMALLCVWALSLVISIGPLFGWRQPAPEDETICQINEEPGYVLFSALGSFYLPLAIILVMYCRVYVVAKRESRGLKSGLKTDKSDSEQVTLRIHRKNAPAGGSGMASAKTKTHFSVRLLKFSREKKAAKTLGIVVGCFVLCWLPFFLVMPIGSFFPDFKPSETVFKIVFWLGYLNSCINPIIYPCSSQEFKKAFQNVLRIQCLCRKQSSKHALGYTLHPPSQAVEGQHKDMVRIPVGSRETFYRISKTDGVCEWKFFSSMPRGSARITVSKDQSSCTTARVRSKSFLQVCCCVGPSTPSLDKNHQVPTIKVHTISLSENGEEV

[3] = molecular target: T2, Alpha-1B adrenergic receptor (Homo sapiens, UniProt P35368); assay: Displacement of [125I]HEAT from COS cells membranes expressing human Alpha-1B adrenergic receptor; assay type: cell membranes
T2 sequence (P35368 whole entry): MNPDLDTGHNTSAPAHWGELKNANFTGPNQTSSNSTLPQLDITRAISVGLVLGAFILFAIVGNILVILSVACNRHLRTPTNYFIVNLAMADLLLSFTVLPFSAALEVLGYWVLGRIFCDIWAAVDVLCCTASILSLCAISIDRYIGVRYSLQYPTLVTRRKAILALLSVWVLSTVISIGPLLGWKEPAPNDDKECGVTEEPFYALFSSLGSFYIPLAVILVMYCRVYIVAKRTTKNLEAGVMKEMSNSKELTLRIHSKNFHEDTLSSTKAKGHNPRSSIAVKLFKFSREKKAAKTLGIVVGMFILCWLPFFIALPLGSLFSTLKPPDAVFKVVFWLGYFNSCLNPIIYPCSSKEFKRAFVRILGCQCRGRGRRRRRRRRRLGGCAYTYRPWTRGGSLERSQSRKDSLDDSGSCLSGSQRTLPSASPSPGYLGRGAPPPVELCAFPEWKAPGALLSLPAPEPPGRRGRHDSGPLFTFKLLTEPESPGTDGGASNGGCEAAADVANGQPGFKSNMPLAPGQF

[4] = molecular target: Alpha adrenergic receptor (1a and 1d) (Homo sapiens) (UniProt P35348+P25100); assay: Relative binding to alpha1d and alpha-1a receptors (ratio of Ki); assay type: protein assay
[5] = molecular target: T3, Alpha-1D adrenergic receptor (Homo sapiens, UniProt P25100); assay: Displacement of [125I]-HEAT from human Alpha-1D adrenergic receptor expressed in COS cells membranes; assay type: cell membranes
T3 sequence (P25100 whole entry): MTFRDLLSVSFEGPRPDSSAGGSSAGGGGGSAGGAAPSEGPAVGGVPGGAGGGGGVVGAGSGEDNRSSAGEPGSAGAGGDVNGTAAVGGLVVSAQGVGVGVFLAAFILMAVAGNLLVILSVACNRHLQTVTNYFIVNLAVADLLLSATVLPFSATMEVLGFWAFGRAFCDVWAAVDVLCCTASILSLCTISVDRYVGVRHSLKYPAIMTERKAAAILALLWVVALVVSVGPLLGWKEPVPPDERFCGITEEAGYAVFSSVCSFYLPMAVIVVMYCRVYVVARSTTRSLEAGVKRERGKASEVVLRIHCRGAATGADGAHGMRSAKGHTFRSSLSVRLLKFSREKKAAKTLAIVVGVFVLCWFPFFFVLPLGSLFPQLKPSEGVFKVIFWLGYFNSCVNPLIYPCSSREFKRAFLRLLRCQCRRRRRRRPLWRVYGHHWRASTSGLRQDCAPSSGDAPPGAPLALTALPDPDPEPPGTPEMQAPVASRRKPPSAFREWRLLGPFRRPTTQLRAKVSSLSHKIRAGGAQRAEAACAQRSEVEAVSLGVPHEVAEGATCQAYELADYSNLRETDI

| Structure (SMILES) | Ratio [1] | Ki [2] | Ki [3] | Ratio [4] | Ki [5] |
| --- | --- | --- | --- | --- | --- |
| COc1ccccc1N1CCN(Cc2ccc(CO)s2)CC1 | 5.3 | 202 nM | 1060 nM | 0.7 | 138 nM |
| COc1ccccc1N1CCN(Cc2ccc(C=O)s2)CC1 | 3.2 | 578 nM | 1880 nM | 0.4 | 262 nM |
| COC(=O)[C@@H]1CCCN1Cc1ccc(CN2CCN(c3ccccc3OC)CC2)s1 | 49 | 12 nM | 592 nM | 1.3 | 15 nM |
| COc1ccccc1N1CCN(Cc2ccc(CN3CCCCCC3=O)s2)CC1 | > 278 | 18 nM | > 5000 nM | 0.7 | 13 nM |
| COc1ccccc1N1CCN(Cc2ccc(CN3CCCCC3=O)s2)CC1 | > 357 | 14 nM | > 5000 nM | 0.9 | 12 nM |
| CC(C)Oc1ccccc1N1CCN(Cc2cc(CN3CCCCCC3=O)cs2)CC1 | 342 | 1.8 nM | 615 nM | 26 | 47 nM |
| CC(C)Oc1ccccc1N1CCN(Cc2cc(CN3CCCCC3=O)cs2)CC1 | 769 | 0.5 nM | 384 nM | 184 | 92 nM |
| COc1ccccc1N1CCN(Cc2ccc(CN3CCCCC3O)s2)CC1 (stereo not given) | 6.1 | 419 nM | 2570 nM | 0.3 | 130 nM |
| CC(C)Oc1ccccc1N1CCN(Cc2cc(CO)cs2)CC1 | > 15 | 331 nM | > 5000 nM | 1 | 339 nM |
| CC(C)Oc1ccccc1N1CCN(Cc2ccc(CN3CCCCC3=O)s2)CC1 | 1250 | 0.3 nM | 413 nM | 54 | 18 nM |
| COc1ccccc1N1CCN(Cc2ccc(CN3CCCC3=O)s2)CC1 | > 125 | 40 nM | > 5000 nM | 0.6 | 23 nM |
| COc1ccccc1N1CCN(Cc2ccc(Br)s2)CC1 | 6 | 128 nM | 757 nM | 0.7 | 92 nM |
| CC(C)Oc1ccccc1N1CCN(Cc2cc(CN3CCCC3=O)cs2)CC1 | 1520 | 0.2 nM | 259 nM | 147 | 25 nM |
